Experimental data from patent publication US9579319B2 (Redx Pharma PLC, priority 2013, dated 2017).

System: Hedgehog signalling pathway
Assay: Gli-reporter NIH3T3 luciferase assay (Hedgehog pathway inhibition)
Assay type: cell-based
Conditions: NIH3T3; Gli-reporter NIH-3T3 cells, recombinant mouse sonic hedgehog, 24 hours, luminescence; read-out: Gli luc IC50
How it was run: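 Mouse NIH3T3 cells with Gli-responsive luciferase reporter, pre-treated 1 h with compound (top final concentration 1 μM, 0.1% DMSO) in 0.5% calf serum medium. Then stimulated with recombinant mouse sonic hedgehog for 24 h at 37° C. Luminescence read-out (OneGLO), triplicates; IC50 reported.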

| SMILES | IC50 |
| --- | --- |
| O=C(Nc1ccc(F)cc1C(F)(F)F)NC1CCN(c2nnc(-c3ccncc3)c3ccncc23)CC1 [Example 99, 1-[4-fluoro-2-(trifluoromethyl)phenyl]-3-[1-[1-(4-pyridyl)pyrido[3,4-d]pyridazin-4-yl]-4-piperidyl]urea] | < 10 nM |
| CN(C(=O)Nc1ccc(F)cc1F)C1CCN(c2nnc(-c3ccnn3C)c3ncccc23)CC1 [Example 101, 3-(2,4-difluorophenyl)-1-methyl-1-[1-[8-(2-methylpyrazol-3-yl)pyrido[2,3-d]pyridazin-5-yl]-4-piperidyl]urea] | > 200 nM |
| Cn1nccc1-c1nnc(N2CCC(NC(=O)Nc3ccc(F)cc3F)CC2)c2cnccc12 [Example 104, 1-(2,4-difluorophenyl)-3-[1-[1-(2-methylpyrazol-3-yl)pyrido[3,4-d]pyridazin-4-yl]-4-piperidyl]urea] | 10 to 200 nM |
| Cc1c(-c2ccnn2C)nnc(N2CCC(N(C)C(=O)Nc3cnncc3C(F)(F)F)CC2)c1C [Example 107, 1-[1-[4,5-dimethyl-6-(2-methylpyrazol-3-yl)pyridazin-3-yl]-4-piperidyl]-1-methyl-3-[5-(trifluoromethyl)pyridazin-4-yl]urea] | > 200 nM |
| Cn1nccc1-c1nnc(N2CCC(NC(=O)NC3(C(F)(F)F)CC3)CC2)c2ccccc12 [Example 109, 1-[1-[4-(2-methylpyrazol-3-yl)phthalazin-1-yl]-4-piperidyl]-3-[1-(trifluoromethyl)cyclopropyl]urea] | 10 to 200 nM |
| CN(Cc1ccccc1[N+](=O)[O-])C1CCN(c2nnc(-c3ccnn3C)c3ccccc23)CC1 [Example 114, N-methyl-1-[4-(2-methylpyrazol-3-yl)phthalazin-1-yl]-N-[(2-nitrophenyl)methyl]piperidin-4-amine] | 10 to 200 nM |
| Cn1nccc1-c1nnc(N2CCC(NCc3ccccc3S(C)(=O)=O)CC2)c2ccccc12 [Example 115, 1-[4-(2-methylpyrazol-3-yl)phthalazin-1-yl]-N-[(2-methylsulfonylphenyl)methyl]piperidin-4-amine] | 10 to 200 nM |
| COc1ccc(-c2nnc(N3CCC(NS(=O)(=O)c4ccc(F)cc4C(F)(F)F)CC3)c(C)c2C)cn1 [Example 117, 4-fluoro-N-[1-[6-(6-methoxy-3-pyridyl)-4,5-dimethyl-pyridazin-3-yl]-4-piperidyl]-2-(trifluoromethyl)benzenesulfonamide] | 10 to 200 nM |
| Cc1cc(-c2nnc(N3CCC(NS(=O)(=O)c4ccc(F)cc4C(F)(F)F)CC3)c(C)c2C)ccn1 [Example 118, N-[1-[4,5-dimethyl-6-(2-methyl-4-pyridyl)pyridazin-3-yl]-4-piperidyl]-4-fluoro-2-(trifluoromethyl)benzenesulfonamide] | > 200 nM |
| Cc1c(-c2ccncc2)nnc(N2CCC(NS(=O)(=O)c3ccc(F)cc3C(F)(F)F)CC2)c1C [Example 119, N-[1-[4,5-dimethyl-6-(4-pyridyl)pyridazin-3-yl]-4-piperidyl]-4-fluoro-2-(trifluoromethyl)benzenesulfonamide] | 10 to 200 nM |
| COc1cc(-c2nnc(N3CCC(NCc4ccc(F)cc4C(F)(F)F)CC3)c(C)c2C)ccn1 [Example 121, N-[[4-fluoro-2-(trifluoromethyl)phenyl]methyl]-1-[6-(2-methoxy-4-pyridyl)-4,5-dimethyl-pyridazin-3-yl]piperidin-4-amine] | > 200 nM |
| Cc1cc(-c2nnc(N3CCC(NCc4ccc(F)cc4C(F)(F)F)CC3)c(C)c2C)ccn1 [Example 122, 1-[4,5-dimethyl-6-(2-methyl-4-pyridyl)pyridazin-3-yl]-N-[[4-fluoro-2-(trifluoromethyl)phenyl]methyl]piperidin-4-amine] | > 200 nM |
| Cc1c(-c2ccncc2)nnc(N2CCC(NCc3ccc(F)cc3C(F)(F)F)CC2)c1C [Example 123, 1-[4,5-dimethyl-6-(4-pyridyl)pyridazin-3-yl]-N-[[4-fluoro-2-(trifluoromethyl)phenyl]methyl]piperidin-4-amine] | 10 to 200 nM |
| CN(C1CCN(c2nnc(-c3ccnn3C)c3c2CCC3)CC1)S(=O)(=O)c1ccc(F)cc1C(F)(F)F [Example 124, 4-fluoro-N-methyl-N-[1-[1-(2-methylpyrazol-3-yl)-6,7-dihydro-5H-cyclopenta[d]pyridazin-4-yl]-4-piperidyl]-2-(trifluoromethyl)benzenesulfonamide] | 10 to 200 nM |
| Cc1c(-c2ccnn2C)nnc(N2CCC(N(C)C(=O)Nc3ccccc3F)CC2)c1C [Example 126, 1-[1-[4,5-dimethyl-6-(2-methylpyrazol-3-yl)pyridazin-3-yl]-4-piperidyl]-3-(2-fluorophenyl)-1-methyl-urea] | 10 to 200 nM |
| CN(C(=O)NC(C)(C)C)C1CCN(c2nnc(-c3ccnn3C)c3ncccc23)CC1 [Example 129, 3-tert-butyl-1-methyl-1-[1-[8-(2-methylpyrazol-3-yl)pyrido[2,3-d]pyridazin-5-yl]-4-piperidyl]urea] | > 200 nM |
| CN(Cc1cccc(C#N)c1)C1CCN(c2nnc(-c3ccnn3C)c3c2CCC3)CC1 [Example 131, 3-[[methyl-[1-[1-(2-methylpyrazol-3-yl)-6,7-dihydro-5H-cyclopenta[d]pyridazin-4-yl]-4-piperidyl]amino]methyl]benzonitrile] | 10 to 200 nM |

Second part, the compound after the results:

| IC50 | SMILES |
| --- | --- |
| 10 to 200 nM | Cc1c(-c2ccnn2C)nnc(N2CCC(NC(=O)Nc3ccc(F)cc3C(F)(F)F)CC2)c1C [Example 100, 1-[1-[4,5-dimethyl-6-(2-methylpyrazol-3-yl)pyridazin-3-yl]-4-piperidyl]-3-[4-fluoro-2-(trifluoromethyl)phenyl]urea] |
| 10 to 200 nM | CN(C1CCN(c2nnc(-c3ccnn3C)c3ccncc23)CC1)S(=O)(=O)c1ccc(F)cc1F [Example 102, 2,4-difluoro-N-methyl-N-[1-[1-(2-methylpyrazol-3-yl)pyrido[3,4-d]pyridazin-4-yl]-4-piperidyl]benzenesulfonamide] |
| 10 to 200 nM | CN(C1CCN(c2nnc(-c3ccnn3C)c3ccncc23)CC1)S(=O)(=O)c1ccc(F)cc1C(F)(F)F [Example 103, 4-fluoro-N-methyl-N-[1-[1-(2-methylpyrazol-3-yl)pyrido[3,4-d]pyridazin-4-yl]-4-piperidyl]-2-(trifluoromethyl)benzenesulfonamide] |
| < 10 nM | Cn1nccc1-c1nnc(N2CCC(NC(=O)Nc3ccc(F)cc3C(F)(F)F)CC2)c2cnccc12 [Example 105, 1-[4-fluoro-2-(trifluoromethyl)phenyl]-3-[1-[1-(2-methylpyrazol-3-yl)pyrido[3,4-d]pyridazin-4-yl]-4-piperidyl]urea] |
| 10 to 200 nM | Cn1nccc1-c1nnc(N2CCC(NS(=O)(=O)c3ccc(F)cc3C(F)(F)F)CC2)c2cnccc12 [Example 106, 4-fluoro-N-[1-[1-(2-methylpyrazol-3-yl)pyrido[3,4-d]pyridazin-4-yl]-4-piperidyl]-2-(trifluoromethyl)benzenesulfonamide] |
| 10 to 200 nM | Cc1c(-c2ccnn2C)nnc(N2CCC(NC(=O)NC3(C(F)(F)F)CC3)CC2)c1C [Example 108, 1-[1-[4,5-dimethyl-6-(2-methylpyrazol-3-yl)pyridazin-3-yl]-4-piperidyl]-3-[1-(trifluoromethyl)cyclopropyl]urea] |
| 10 to 200 nM | COc1ccc(-c2nnc(N3CCC(N(C)Cc4ccc(F)cc4C(F)(F)F)CC3)c(C)c2C)cn1 [Example 110, N-[[4-fluoro-2-(trifluoromethyl)phenyl]methyl]-1-[6-(6-methoxy-3-pyridyl)-4,5-dimethyl-pyridazin-3-yl]-N-methyl-piperidin-4-amine] |
| 10 to 200 nM | CN(C(=O)Nc1ccc(F)cc1F)C1CCN(c2nnc(-c3ccnn3C)c3ccncc23)CC1 [Example 111, 3-(2,4-difluorophenyl)-1-methyl-1-[1-[1-(2-methylpyrazol-3-yl)pyrido[3,4-d]pyridazin-4-yl]-4-piperidyl]urea] |
| > 200 nM | Cc1c(-c2ccnn2C)nnc(N2CCC(N(C)C(=O)Nc3ccc(F)cc3)CC2)c1C [Example 113, 1-[1-[4,5-dimethyl-6-(2-methylpyrazol-3-yl)pyridazin-3-yl]-4-piperidyl]-3-(4-fluorophenyl)-1-methyl-urea] |
| 10 to 200 nM | COc1ccc(-c2nnc(N3CCC(NCc4ccc(F)cc4C(F)(F)F)CC3)c(C)c2C)cn1 [Example 120, N-[[4-fluoro-2-(trifluoromethyl)phenyl]methyl]-1-[6-(6-methoxy-3-pyridyl)-4,5-dimethyl-pyridazin-3-yl]piperidin-4-amine] |
| < 10 nM | CN(C(=O)Nc1ccc(F)cc1C(F)(F)F)C1CCN(c2nnc(-c3ccnn3C)c3c2CCC3)CC1 [Example 125, 3-[4-fluoro-2-(trifluoromethyl)phenyl]-1-methyl-1-[1-[1-(2-methylpyrazol-3-yl)-6,7-dihydro-5H-cyclopenta[d]pyridazin-4-yl]-4-piperidyl]urea] |
| > 200 nM | Cc1c(-c2ccnn2C)nnc(N2CCC(N(C)C(=O)Nc3ccc(F)cc3F)CC2)c1C [Example 127, 3-(2,4-difluorophenyl)-1-[1-[4,5-dimethyl-6-(2-methylpyrazol-3-yl)pyridazin-3-yl]-4-piperidyl]-1-methyl-urea] |
| > 200 nM | Cn1nccc1-c1nnc(N2CCC(NCc3ccc(F)c(C#N)c3)CC2)c2c1CCC2 [Example 128, 2-fluoro-5-[[[1-[1-(2-methylpyrazol-3-yl)-6,7-dihydro-5H-cyclopenta[d]pyridazin-4-yl]-4-piperidyl]amino]methyl]benzonitrile] |
| > 200 nM | CN(Cc1ccc(F)cc1C(F)(F)F)C1CCN(c2nnc(-c3ccnn3C)c3ncccc23)CC1 [Example 130, N-[[4-fluoro-2-(trifluoromethyl)phenyl]methyl]-N-methyl-1-[8-(2-methylpyrazol-3-yl)pyrido[2,3-d]pyridazin-5-yl]piperidin-4-amine] |
| 10 to 200 nM | CN(Cc1ccc(F)cc1C(F)(F)F)C1CCN(c2nnc(-c3ccnn3C)c3c2CCC3)CC1 [Example 132, N-[[4-fluoro-2-(trifluoromethyl)phenyl]methyl]-N-methyl-1-[1-(2-methylpyrazol-3-yl)-6,7-dihydro-5H-cyclopenta[d]pyridazin-4-yl]piperidin-4-amine] |
